Data as given in patent publication US12458688B2, “Epitopes” (Scancell Limited, priority 2018, dated 2025).
Where no end group is shown, it is not given here. [ ]: non-standard residue; d: D form. hCit = NC(=O)NCCCC[C@H](N)C(=O)O

test system: HLA-DR4 mice; assay: Ex vivo IFNγ ELISpot after peptide immunisation, HLA-DR4 mice; format: in vivo, mouse; details: not given
Method: (§1) C57BL/6 mice (Charles River, UK), HLA-DR4 mice (Model #4149, Taconic, USA), HLA-A2/DR1 (HHDII/DR1, Pasteur Institute), HLA-A2.1+/+HLA-DP4+/+hCD4+/+ (HLA-HHDII/DP4) transgenic mice (EM: 02221, European Mouse Mutant Archive) described in patent WO2013/017545 A1 (EMMA repository, France) were used, aged between 8 and 12 weeks. Peptides were dissolved in PBS to 1 mg/ml and then emulsified (a series of dilutions) with CpG ODN 1826 and MPLA 6 μg/mouse of each (Invivogen, UK). Peptides (25 μg/mouse) were injected subcutaneously at the base of the tail. Mice were immunised at days 1, 7 and 14 for peptide immunisation. Spleens were removed for analysis at day 21 unless stated otherwise.
(§2) ELISpot assays were performed using murine IFNγ, IL-17 and IL-10 capture and detection reagents according to the manufacturer's instructions (Mabtech, Sweden). In brief, anti-IFNγ, IL-17 and IL-10 specific antibodies were coated onto wells of 96-well Immobilin-P plate. Synthetic peptides (at various concentrations) and 5×10^5 per well splenocytes were added to wells of the plate in quadruplicate Tumour target cells were added where relevant at 5×10^4/well in triplicate and plates incubated for 40 hrs at 37° C. After incubation, captured IFNγ, IL-10 and IL-17 were detected by biotinylated anti-IFNγ, IL-10 and IL-17 antibodies and developed with a streptavidin alkaline phosphatase and chromogenic substrate. Lipopolysaccharide (LPS; 5 μg/ml) was used as a positive control. For MHC blocking studies, anti-CD4 blocking antibody (GK1.5) or anti-CD4 blocking antibody (RPA-T4) for HHDII/DP4 mice which express human CD4 and anti-CD8 blocking antibody (2.43) from Bioxcell were used at 20 μg/ml. Spots were analysed and counted using an automated plate reader (Cellular Technologies Ltd).
(§3) Screening was performed to identify potential homocitrullinated vimentin epitopes in mice. Mice were immunised with pools of homocitrullinated peptides. […] Each pool was administered as three immunisations containing 20 μg of each peptide and CpG/MPLA as an adjuvant on day 1, 8 and 15. On day 21 the mice were culled and the immune responses to each peptide within the immunising pool were assessed by ex vivo ELISpot. Given that different mouse strains have different MHC repertoires a number of strains were used for screening. Peptide responses were assessed in transgenic strains expressing human DR4 or HHDII/DR1 in a C57BL/6 background (see methods).

Substance	IFNγ response in presence of CD4 blocking antibody	IFNγ response in presence of CD8 blocking antibody	cross reactivity of Hcit response to wt peptide
NYID-Hcit-VRFLEQQN-Hcit-ILLAEL (NYID[hCit]VRFLEQQN[hCit]ILLAEL) [Vimentin 116-135 Hcit]	significantly decreased	not in the presence of the CD8 blocking antibody	no cross reactivity

same assay, conditions: 3 immunisations with CpG/MPLA, day 21

Substance	IFNγ ELISpot response
IGGVILFHETLYQ-hcit-ADDGRP (IGGVILFHETLYQ[hCit]ADDGRP) [Aldolase A 74-93 Hcit]	No responses were seen
NYID-Hcit-VRFLEQQN-Hcit-ILLAEL (NYID[hCit]VRFLEQQN[hCit]ILLAEL) [Vimentin 116-135 Hcit]	significant response
hcit-DGADFA-hcit-WRCVL-hcit-IGEH ([hCit]DGADFA[hCit]WRCVL[hCit]IGEH) [Aldolase A 140-157 Hcit]	No responses were seen

test system: HLA-HHDII/DR1 mice; assay: Ex vivo IFNγ ELISpot after peptide immunisation, HHDII/DR1 mice; format: in vivo, mouse; details: not given
Method: as §1, §2
as §3, with “methods). […]” for “methods).”
The five selected homocitrullinated Cyk8 peptides were also screened in HHDII/DR1 transgenic mice. […] Response to Cyk8 112Hcit peptide in the HHDII/DR1 mice was lost in the presence of CD8 blocking antibody but less effect of the CD4 blocking antibody was seen (FIG. 12b). […] Responses to homocitrullinated Cyk8 peptides show both CD4 and CD8 mediated responses.

Substance	IFNγ response in presence of CD4 blocking antibody	IFNγ response in presence of CD8 blocking antibody	cross reactivity of Hcit response to wt peptide
LEQQN-hcit-MLET-hcit-WSLLQQQ-hcit-T (LEQQN[hCit]MLET[hCit]WSLLQQQ[hCit]T) [Cyk8 112-131 Hcit]	less effect	lost	minimal cross reactivity
NYID-Hcit-VRFLEQQN-Hcit-ILLAEL (NYID[hCit]VRFLEQQN[hCit]ILLAEL) [Vimentin 116-135 Hcit]	significantly decreased	not in the presence of the CD8 blocking antibody	no cross reactivity
LREYQELMNV-hcit-LALDIEI (LREYQELMNV[hCit]LALDIEI) [Cyk8 371-388 Hcit]	lost	not with the CD8 blocking antibody	minimal cross reactivity
hcit-DGADFA-hcit-WRCVL-hcit-IGEH ([hCit]DGADFA[hCit]WRCVL[hCit]IGEH) [Aldolase A 140-157 Hcit]	–	–	significantly higher

same assay, conditions: 3 immunisations with CpG/MPLA, day 21

Substance	IFNγ ELISpot response
LEQQN-hcit-MLET-hcit-WSLLQQQ-hcit-T (LEQQN[hCit]MLET[hCit]WSLLQQQ[hCit]T) [Cyk8 112-131 Hcit]	Significant responses
NYID-Hcit-VRFLEQQN-Hcit-ILLAEL (NYID[hCit]VRFLEQQN[hCit]ILLAEL) [Vimentin 116-135 Hcit]	significant response
LREYQELMNV-hcit-LALDIEI (LREYQELMNV[hCit]LALDIEI) [Cyk8 371-388 Hcit]	Significant responses
hcit-DGADFA-hcit-WRCVL-hcit-IGEH ([hCit]DGADFA[hCit]WRCVL[hCit]IGEH) [Aldolase A 140-157 Hcit]	stimulated responses

test system: B16F1 HHDII/DR1 tumours; assay: Tumour therapy, B16F1 HHDII/DR1 tumour in HHDII/DR1 mice; format: in vivo, mouse; details: peptide with CpG/MPLA days 4, 11, 18
Description: To determine if the epitopes that stimulate T cell responses are presented on MHC-II within the tumour environment, our homocitrullinated peptides were checked for tumour therapy in B16 tumour models. Mice were implanted with tumour cells on day 1 and then immunised with peptides and CpG/MPLA on days 4, 11 and 18.
HHDII/DR1 (FIG. 19a) or DR4 (FIG. 19b) transgenic mice were challenged with B16F1 HHDII/DR1 or B16F1 DR4 tumours respectively prior to immunisation with vimentin 116-135Hcit peptide and tumour growth and survival were monitored.
HHDII/DR1 mice were implanted with B16HHDII/DR1 tumour cells on day 1 and then immunised with Cyk8 371Hcit, 112hcit or both peptides and CpG/MPLA on days 4, 11 and 18.

Substance	anti-tumour response / survival vs control	survival [%]
LEQQN-hcit-MLET-hcit-WSLLQQQ-hcit-T (LEQQN[hCit]MLET[hCit]WSLLQQQ[hCit]T) [Cyk8 112-131 Hcit]	Significant prevention of tumour growth	–
NYID-Hcit-VRFLEQQN-Hcit-ILLAEL (NYID[hCit]VRFLEQQN[hCit]ILLAEL) [Vimentin 116-135 Hcit]	–	50
LREYQELMNV-hcit-LALDIEI (LREYQELMNV[hCit]LALDIEI) [Cyk8 371-388 Hcit]	Significant prevention of tumour growth	–
hcit-DGADFA-hcit-WRCVL-hcit-IGEH ([hCit]DGADFA[hCit]WRCVL[hCit]IGEH) [Aldolase A 140-157 Hcit]	significant increase in survival	–

test system: HLA transgenic mice; assay: T cell response to Hcit peptides in HLA transgenic mice (screening, ex vivo ELISpot); design: species or system mouse; details: yes/no; Hcit peptide with CpG/MPLA
Method: as §1, §2, §3
(§4) Screening was performed to identify potential homocitrullinated ALDOA epitopes in transgenic HHDII/DP4 and HHDII/DR1 mice. Mice were immunised with pools of human homocitrullinated peptides. […] Each pool was administered as three immunisations containing 20 μg of each peptide and CpG/MPLA as an adjuvant. After 21 days the mice were culled and the immune responses to each peptide within the immunising pool were assessed by ex vivo ELISpot in HHDII/DP4 (FIG. 4b) and HHDII/DR1 mice (FIG. 4d).
as §4, with “Using this combination of predictions, 5 CyK8 peptides containing homocitrulline were synthesised (Table 4). Screening” for “Screening”, “Cyk8” for “ALDOA”, “HHDII/DP4.” for “HHDII/DP4 and HHDII/DR1 mice.”, “10a).” for “4b) and HHDII/DR1 mice (FIG. 4d).”

Substance	T cell response
hcit-LALDIEIATYR-hcit-LLEGEE ([hCit]LALDIEIATYR[hCit]LLEGEE) [Cyk8 381-399 Hcit]	Yes
IGGVILFHETLYQ-hcit-ADDGRP (IGGVILFHETLYQ[hCit]ADDGRP) [Aldolase A 74-93 Hcit]	yes
LEQQN-hcit-MLET-hcit-WSLLQQQ-hcit-T (LEQQN[hCit]MLET[hCit]WSLLQQQ[hCit]T) [Cyk8 112-131 Hcit]	Yes
NYID-Hcit-VRFLEQQN-Hcit-ILLAEL (NYID[hCit]VRFLEQQN[hCit]ILLAEL) [Vimentin 116-135 Hcit]	yes
LREYQELMNV-hcit-LALDIEI (LREYQELMNV[hCit]LALDIEI) [Cyk8 371-388 Hcit]	Yes
HACTQ-hcit-FSH(N)EEIAMATVTA (HACTQ[hCit]FSHNEEIAMATVTA; not fully specified; printed as HACTQ-hcit-FSH(N)EEIAMATVTA) [Aldolase A 238-256 Hcit]	yes
KFASFID-Hcit-VRFLEQQN-Hcit-MLE (KFASFID[hCit]VRFLEQQN[hCit]MLE) [Cyk8 101-120 Hcit]	Yes
EIN-hcit-RTEMENEFVLI-hcit-hcit-DVDE (EIN[hCit]RTEMENEFVLI[hCit][hCit]DVDE) [Cyk8 182-202 Hcit]	Yes
hcit-DGADFA-hcit-WRCVL-hcit-IGEH ([hCit]DGADFA[hCit]WRCVL[hCit]IGEH) [Aldolase A 140-157 Hcit]	yes
